From ChEMBL document CHEMBL1201862, “PubChem BioAssay data set” (2004) come the findings set out here.

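Dose response: 5 concentrations. Exposure: 48 h. Format: 96-well plates. Endpoint: linear interpolation; highest concentration if not reached. At the GI50, growth is halved.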 Calls of active or inactive are those of the source. Cut-off read from the data, not from the text of the source: active = GI50 up to about 1.1 µM and inactive = higher. Some results are limits rather than exact numbers.

Experiment in all cases: NCI tumour cell line growth inhibition, 48 h
The subject of test [1] is DLD-1.
Test [2] has as its system KM-20L2.
Test [3] deals with LXFL 529.
The test system of test [4] is DMS-114.
Test [5] has as its system XF498.
Test [6] relates to SNB-78.
Test [7] concerns DMS-273.
Test [8] relates to RXF 631.
Test [9] relates to HOP-18.

As to `COc1ccc(/C=C2\Cc3ccccc3C2=O)cc1OC`, the GI50 in test [1] was > 100 µM (inactive); in [2] it was > 100 µM (inactive); in test [3] it was 75 µM (inactive); in [4], 48.6 µM (inactive); in test [5] it was > 100 µM (inactive); in [6], > 100 µM (inactive).

With `COc1ccc(-c2cc(O)c3cc4c(cc3n2)OCO4)cc1`, the GI50 in test [7], in test [1], in test [2], in test [3], in test [4] and in test [5] was > 100 µM (inactive) in each case.

As to `CCOC(=O)c1c(C)c(C)n2c1NC(=O)C2`, the GI50 in test [7], in test [1], in [8], in test [2], in test [3] and in test [9] was > 100 µM (inactive) each time. Moreover, the GI50 is > 100 µM (inactive) in [4] and 0.073 µM (active) in test [5].

On to `NC(=O)COc1ccccc1`, for which the GI50 in test [7], in test [1], in [8], in test [2], in [3] and in test [4] was > 100 µM (inactive) throughout. Moreover, the GI50 in test [5] and in test [6] was > 100 µM (inactive) throughout.

With `C=C1C(=O)O[C@H]2C[C@@H](C)[C@@H]3CC(=O)OC[C@@]3(C)CC12` (some centres not stated), the GI50 in test [7] was 28.6 µM (inactive); in test [1], 23.4 µM (inactive); in [2], 18.5 µM (inactive); in [9] it was 36.5 µM (inactive).

For `Nc1nc(N)c(CCCCc2ccccc2)c(C=O)n1`, the GI50 was 17.2 µM (inactive) in test [7]; 20.1 µM (inactive) in [1]; 43.5 µM (inactive) in test [8]; 30.6 µM (inactive) in test [2]; 40.8 µM (inactive) in test [9]; 15.9 µM (inactive) in test [4]. Also, in test [6], the GI50 was 22.9 µM (inactive).

For `COC(=O)C(Cc1nc2ccccc2nc1O)/C(=N\NC(C)(C)C)C(=O)Nc1c(C)cc(Br)cc1C` (configuration not stated), the GI50 in test [1] was 22.2 µM (inactive); in [3], 21.1 µM (inactive); in [4], 24.7 µM (inactive); in test [6], 22.6 µM (inactive).

Take `O=C1N=C2N=C(c3ccc(Cl)cc3)N(c3ccc(Cl)cc3)N2Sc2ccccc21`: the GI50 in [7] is 67.1 µM (inactive); in test [1] it was > 100 µM (inactive); in test [2], > 100 µM (inactive); in test [3] it was > 100 µM (inactive); in [9], > 100 µM (inactive); in test [4], > 100 µM (inactive). For the same compound, the GI50 was 40.9 µM (inactive) in test [5] and > 100 µM (inactive) in test [6].

`CC(=O)Oc1ccc(CO)cc1OC(C)=O`: the GI50 in test [7] is > 100 µM (inactive); in test [1], > 100 µM (inactive); in [8] it was 63.2 µM (inactive); in test [2] it was > 100 µM (inactive); in test [3] it was > 100 µM (inactive); in test [9] it was > 100 µM (inactive). For the same compound, the GI50 in [4] was 40.3 µM (inactive); in [5], 92.9 µM (inactive); in [6] it was > 100 µM (inactive).

`CCC1=CCN(c2cc(C)ccn2)OC1c1ccccc1` (configuration not stated): the GI50 in [7] was 43.6 µM (inactive); in test [1] it was 34 µM (inactive); in [8], 25.4 µM (inactive); in [2], 39.2 µM (inactive); in test [3] it was 27 µM (inactive); in test [9], > 100 µM (inactive). The results for the GI50 in test [4], in [5] and in test [6] were 56.2 µM (inactive), 22.9 µM (inactive) and 43.9 µM (inactive), respectively.

As to `CC(N)Cc1ccc(F)cc1` (configuration not stated), the GI50 in [7], in test [1], in [8], in [2], in [3] and in test [9] was > 100 µM (inactive) each time. Moreover, the GI50 in test [4] and in [6] was > 100 µM (inactive) throughout.

`CC1(C2CCC3(C)C(C2)C3Sc2ccccc2)OCCO1` (configuration not stated): the GI50 in test [7] is 19.9 µM (inactive); in test [1] it was 29 µM (inactive); in test [3], 37.2 µM (inactive); in test [4], 21.8 µM (inactive); in test [5], 17.1 µM (inactive); in test [6] it was 40 µM (inactive).

For `Cc1ccc(C2=Nc3ccccc3NC(=O)C2)cc1`, the GI50 in test [7] was > 100 µM (inactive); in test [1], > 100 µM (inactive); in test [2], > 100 µM (inactive); in test [3], > 100 µM (inactive); in test [9], > 100 µM (inactive); in [4], 91.2 µM (inactive). Moreover, the GI50 in test [5] is 35.9 µM (inactive); in [6] it was 72.6 µM (inactive).

For the compound `COc1cc(OC)cc(N2CCC(c3c(N)nc(N)nc3Cl)CC2)c1`, the GI50 was > 100 µM (inactive) in [7]; 75.7 µM (inactive) in test [1]; > 100 µM (inactive) in test [8]; > 100 µM (inactive) in test [2]; 37.8 µM (inactive) in test [3]; 26.3 µM (inactive) in test [5]. Moreover, the GI50 in test [6] was > 100 µM (inactive).

Take `CCNC(=O)OCc1c(COC(=O)NCC)c(-c2ccc(Cl)c(Cl)c2)n2c1CCC2`: the GI50 in [7] was 9.48 µM (inactive); in test [1], 11.8 µM (inactive); in test [2], 16.9 µM (inactive); in test [3], 15.3 µM (inactive); in test [4], 9.02 µM (inactive); in [5], 16.1 µM (inactive).

For `N#CC1(Cc2ccccc2)CCCCN1C(=O)c1ccccc1` (configuration not stated), the GI50 in test [7], in test [1], in test [8], in test [2], in [3] and in [9] was > 100 µM (inactive) each time. The GI50 in [4], in test [5] and in [6] was > 100 µM (inactive) in each case.

For `CC1OC(n2cc(F)c(=O)[nH]c2=O)C=CC1=O` (configuration not stated), the GI50 in [7] is 18.6 µM (inactive); in test [1], 18.1 µM (inactive); in test [8], 53.8 µM (inactive); in test [2] it was 18.4 µM (inactive); in [3], 16.6 µM (inactive); in [9], 18.3 µM (inactive). For the same compound, the GI50 in test [4] is 18 µM (inactive); in test [6], 18.7 µM (inactive).

Turning to `C=CCCOC(=O)CO[N+](=O)[O-]`, the GI50 in test [7], in test [1], in test [2], in [3], in test [4] and in [5] was > 100 µM (inactive) throughout.

Regarding `Cc1cc2c(=O)c3ccccc3[nH]c2c(C(N)=O)c1C`, the GI50 in [1], in test [8], in test [2], in [3], in test [9] and in test [4] was > 100 µM (inactive) each time. Further, the GI50 in test [5] and in test [6] was > 100 µM (inactive) in each case.

For `CSC1NC=Nc2c1sc(=S)n2-c1ccccc1` (configuration not stated), the GI50 in test [7], in [1], in test [2], in test [3], in test [9] and in [4] was > 100 µM (inactive) each time. For the same compound, the figures for the GI50 in [5] and in [6] were > 100 µM (inactive) and 43.5 µM (inactive), respectively.

Consider `CO/N=C/c1cc(OC)c(OC)c(OC)c1`, for which the GI50 in [7], in [1], in test [8], in test [2], in [3] and in test [9] was > 100 µM (inactive) each time. Further, the GI50 in test [4], in test [5] and in test [6] was > 100 µM (inactive) each time.

`CCOC(=O)[C@H](Cc1ccccc1)NC(=O)c1nc[nH]c1[N+](=O)[O-]`: the GI50 in [7], in [1], in test [3] and in test [4] was > 100 µM (inactive) throughout.

Take `C=CC1[C@H]2COC(C)(C)O[C@@H]2CC(=O)C1(C)C` (some centres not stated): the GI50 in test [7], in [1], in test [2], in test [3], in test [9] and in test [4] was > 100 µM (inactive) each time. The GI50 in [5] and in test [6] was > 100 µM (inactive) each time.

Regarding `CC1CC2OC(=O)CC2C[C@@H]1O[Si](C)(C)C(C)(C)C` (some centres not stated), the GI50 in test [7] was 33.7 µM (inactive); in [1] it was 83.4 µM (inactive); in test [8], 44.5 µM (inactive); in test [2] it was 46.3 µM (inactive); in test [3], 68.7 µM (inactive); in test [9], > 100 µM (inactive). The figures for the GI50 in test [4] and in test [6] were 28 µM (inactive) and > 100 µM (inactive), respectively.

As to `CC[C@@]1(O)C(=O)OCc2c1cc1n(c2=O)Cc2cc3cc(OC)ccc3nc2-1`, the GI50 was 0.01 µM (active) in [7], 0.0604 µM (active) in test [2], 0.144 µM (active) in test [3] and 0.01 µM (active) in test [4].

As for `COc1cc([C@@H]2c3cc4c(cc3C[C@H]3COC(=O)[C@@H]32)OCO4)cc(OC)c1OC` [DESOXYPODOPHYLLOTOXIN], the GI50 was 0.00728 µM (active) in [7]; 0.00843 µM (active) in test [1]; 0.00703 µM (active) in test [2]; 33.6 µM (inactive) in test [9]; 0.00698 µM (active) in test [4]; 0.00859 µM (active) in [5]. In test [6], the GI50 is 0.00875 µM (active).

For the compound `C[C@@H]1C[C@H]2[C@@H]3CCC4=CC(=O)C=C[C@]4(C)[C@@]3(F)[C@@H](O)C[C@]2(C)[C@@]1(O)C(=O)CO` [DEXAMETHASONE], the GI50 in test [1] is > 100 µM (inactive); in test [2] it was > 100 µM (inactive); in test [3] it was > 100 µM (inactive); in test [4] it was 95.9 µM (inactive).
